# Test results: patent US20230078265A1, “METHODS AND COMPOSITIONS FOR EDITING NUCLEOTIDE SEQUENCES” (The Broad Institute, Inc., priority 2019, published 2023)
# Assays:
# DNA = details: mutation relative to canonical SpCas9, SEQ ID NO: 18; cited from earlier work
# [1] = tested on: 5′-Cy5-labeled dsDNA substrates; experiment: In vitro TPRT (prime editing) primer extension assay, denaturing urea PAGE; assay type: biochemical; details: standard gRNA (gRNA_0, lane 3), substrates not pre-nicked
# Description: All reactions are with M-MLV RT.
# Fluorescently labeled (Cy5) DNA targets were used as substrates, and were pre-nicked in this set of experiments. […] Then, the fluorescently labeled DNA substrate was added along with dNTPs and the RT enzyme. After 1 hour of incubation at 37° C., the reaction products were analyzed by denaturing urea-polyacrylamide gel electrophoresis (PAGE).
# However, the DNA substrates are not pre-nicked in this set of experiments. […] The reaction products were analyzed by denaturing urea-polyacrylamide gel electrophoresis (PAGE).
# Reactions were incubated at 37° C. for 1 hour, then analyzed by denaturing urea PAGE and visualized for Cy5 fluorescence.
# Reactions were allowed to proceed at 37° C. for 1 hour prior to separation by denaturing urea PAGE and visualization by Cy5 fluorescence.
Substance,Function/Characteristic (as reported) (DNA),cleavage of the DNA strand by the nickase [1]
D10A: SpCas9 mutation relative to SEQ ID NO: 18,Nickase mutant which cleaves the protospacer,–
1099-1368 deletion: SpCas9 mutation relative to SEQ ID NO: 18,No nuclease activity,–
H840A: SpCas9 mutation relative to SEQ ID NO: 18,Nickase mutant which cleaves the non-protospacer,–
Cas9 nickase: Cas9 nickase (SpyCas9 H840A mutant),–,efficiently cleaves
